Each compound was assayed against T1, rat α1B+α2b+β1b channels (N-type channels) (Rattus norvegicus, UniProt Q02294) (assay: Block of α1B N-type channels, whole cell patch recordings (Example 6)). Conditions: 0.067 Hz; HEK 293, 5 mM barium as charge carrier; read-out: Block of α1B N-type Channels IC50, 0.067 Hz.
T1 construct: expressed in transfected cells
T1 sequence (Q02294 whole entry): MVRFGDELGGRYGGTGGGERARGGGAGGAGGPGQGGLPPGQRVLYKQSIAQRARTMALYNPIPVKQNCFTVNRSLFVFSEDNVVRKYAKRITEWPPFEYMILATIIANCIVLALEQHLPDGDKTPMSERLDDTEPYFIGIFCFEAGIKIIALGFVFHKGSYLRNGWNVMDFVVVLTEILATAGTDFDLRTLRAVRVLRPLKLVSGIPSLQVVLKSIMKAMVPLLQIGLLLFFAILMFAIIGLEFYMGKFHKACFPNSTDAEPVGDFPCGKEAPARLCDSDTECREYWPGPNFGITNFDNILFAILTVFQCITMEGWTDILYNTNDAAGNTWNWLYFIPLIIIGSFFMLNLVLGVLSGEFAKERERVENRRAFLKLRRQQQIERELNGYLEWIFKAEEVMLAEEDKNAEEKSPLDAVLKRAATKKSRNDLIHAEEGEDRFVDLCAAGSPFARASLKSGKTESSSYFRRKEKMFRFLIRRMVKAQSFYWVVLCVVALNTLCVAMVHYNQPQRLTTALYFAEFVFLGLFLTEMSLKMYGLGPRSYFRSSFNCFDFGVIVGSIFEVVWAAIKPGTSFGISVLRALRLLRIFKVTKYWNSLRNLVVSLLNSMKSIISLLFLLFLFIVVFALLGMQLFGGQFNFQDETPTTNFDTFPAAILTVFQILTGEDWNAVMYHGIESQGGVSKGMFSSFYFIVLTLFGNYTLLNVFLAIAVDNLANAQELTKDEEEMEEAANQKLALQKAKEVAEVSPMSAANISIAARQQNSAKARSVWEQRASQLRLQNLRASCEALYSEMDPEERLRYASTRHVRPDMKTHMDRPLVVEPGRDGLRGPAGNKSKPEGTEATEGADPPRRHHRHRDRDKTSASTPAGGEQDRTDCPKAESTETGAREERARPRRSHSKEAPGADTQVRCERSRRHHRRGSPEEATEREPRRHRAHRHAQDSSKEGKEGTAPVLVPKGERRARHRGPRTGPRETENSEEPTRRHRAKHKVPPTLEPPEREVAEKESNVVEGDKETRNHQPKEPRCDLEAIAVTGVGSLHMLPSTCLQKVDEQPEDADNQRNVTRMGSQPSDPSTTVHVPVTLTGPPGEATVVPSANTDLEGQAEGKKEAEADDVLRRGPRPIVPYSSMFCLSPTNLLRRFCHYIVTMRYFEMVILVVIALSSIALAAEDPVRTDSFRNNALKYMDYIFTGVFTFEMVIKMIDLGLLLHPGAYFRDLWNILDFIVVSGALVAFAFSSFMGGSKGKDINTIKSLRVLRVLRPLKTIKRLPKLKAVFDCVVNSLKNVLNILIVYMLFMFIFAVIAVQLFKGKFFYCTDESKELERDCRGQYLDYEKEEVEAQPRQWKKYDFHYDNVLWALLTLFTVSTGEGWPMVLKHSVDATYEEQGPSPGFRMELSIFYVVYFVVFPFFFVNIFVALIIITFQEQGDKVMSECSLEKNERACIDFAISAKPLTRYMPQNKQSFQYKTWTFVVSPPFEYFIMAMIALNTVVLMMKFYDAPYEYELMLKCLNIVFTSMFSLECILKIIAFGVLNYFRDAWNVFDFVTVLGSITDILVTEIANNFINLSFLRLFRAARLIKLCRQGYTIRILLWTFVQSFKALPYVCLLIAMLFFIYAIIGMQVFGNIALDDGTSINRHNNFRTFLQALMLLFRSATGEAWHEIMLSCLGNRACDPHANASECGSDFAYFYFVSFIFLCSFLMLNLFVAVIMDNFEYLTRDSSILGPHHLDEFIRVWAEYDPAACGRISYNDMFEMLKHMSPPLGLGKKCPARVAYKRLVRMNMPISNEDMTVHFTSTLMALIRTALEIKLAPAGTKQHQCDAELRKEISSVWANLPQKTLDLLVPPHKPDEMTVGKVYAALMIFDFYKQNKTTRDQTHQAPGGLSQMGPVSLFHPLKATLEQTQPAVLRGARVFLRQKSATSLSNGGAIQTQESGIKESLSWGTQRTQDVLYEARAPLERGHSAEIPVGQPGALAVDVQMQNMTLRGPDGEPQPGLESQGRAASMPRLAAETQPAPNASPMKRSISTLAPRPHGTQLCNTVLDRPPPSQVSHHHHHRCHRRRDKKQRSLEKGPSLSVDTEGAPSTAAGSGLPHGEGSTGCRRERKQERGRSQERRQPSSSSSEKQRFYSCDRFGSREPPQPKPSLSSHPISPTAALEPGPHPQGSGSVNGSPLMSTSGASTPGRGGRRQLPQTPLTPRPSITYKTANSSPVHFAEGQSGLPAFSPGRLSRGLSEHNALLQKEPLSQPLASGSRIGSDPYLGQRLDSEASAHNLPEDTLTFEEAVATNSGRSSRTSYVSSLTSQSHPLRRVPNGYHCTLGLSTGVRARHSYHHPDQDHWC
Format: cell-based
Protocol: Antagonist activity was measured using whole cell patch recordings on human embryonic kidney cells either stably or transiently expressing rat α1B+α2b+β1b channels (N-type channels) with 5 mM barium as a charge carrier.
For transient expression, host cells, such as human embryonic kidney cells, HEK 293 (ATCC# CRL 1573) were grown in standard DMEM medium supplemented with 2 mM glutamine and 10% fetal bovine serum. HEK 293 cells were transfected by a standard calcium-phosphate-DNA coprecipitation method using the rat α1B+β1b+α2δ N-type calcium channel subunits in a vertebrate expression vector (for example, see Current Protocols in Molecular Biology).
After an incubation period of from 24 to 72 hrs the culture medium was removed and replaced with external recording solution (see below). Whole cell patch clamp experiments were performed using an Axopatch 200B amplifier (Axon Instruments, Burlingame, Calif.) linked to an IBM compatible personal computer equipped with pCLAMP software. Borosilicate glass patch pipettes (Sutter Instrument Co., Novato, Calif.) were polished (Microforge, Narishige, Japan) to a resistance of about 4 MΩ when filled with cesium methanesulfonate internal solution (composition in MM: 109 CsCH3SO4, 4 MgCl2, 9 EGTA, 9 HEPES, pH 7.2). Cells were bathed in 5 mM Ba^++ (in mM: 5 BaCl2, 1 MgCl2, 10 HEPES, 40 tetraethylammonium chloride, 10 glucose, 87.5 CsCl pH 7.2). […] Drugs were perfused directly into the vicinity of the cells using a microperfusion system.
Normalized dose-response curves were fit (Sigmaplot 4.0, SPSS Inc., Chicago, Ill.) by the Hill equation to determine IC50 values. Steady-state inactivation curves were plotted as the normalized test pulse amplitude following 5 s inactivating prepulses at +10 mV increments. Inactivation curves were fit (Sigmaplot 4.0) with the Boltzman equation, Ipeak (normalized)=1/(1+exp((V-Vh)z/25.6)), where V and Vh are the conditioning and half inactivation potentials, respectively, and z is the slope factor.
Using the procedure set forth above, various compounds of the invention were tested for their ability to block N-type calcium channels.
O=C(CC(c1ccccc1)c1ccccc1)N1CCN(C(c2ccccc2)c2ccc3c(c2)OCO3)CC1 (stereo not drawn) [Compound P7] showed an IC50 of 213 nM.
With O=C(CC(c1ccccc1)c1ccccc1)N1CCN([C@@H](c2ccccc2)c2ccc(Cl)cc2)CC1 [Compound P47] the IC50 was 237 nM.
Compound O=C(CC(c1ccccc1)c1ccccc1)N1CCN(C(c2ccccc2)c2ccc(C(F)(F)F)cc2)CC1 (stereo not drawn) [Compound P1] has an IC50 of 100 nM.
With O=C(CC(c1ccccc1)c1ccccc1)N1CCN(C(c2ccccc2)c2ccc(Cl)cc2)CC1 (stereo not drawn) [Compound P6] the IC50 was 170 nM.
With O=C(CC(c1ccccc1)c1ccccc1)N1CCN(C(c2ccccc2)c2cccc(C(F)(F)F)c2)CC1 (stereo not drawn) [Compound P2] the IC50 was 200 nM.
Cc1ccc(C(c2ccccc2)N2CCN(C(=O)CC(c3ccccc3)c3ccccc3)CC2)c(C)c1 (stereo not drawn) [Compound P18] showed an IC50 of 324 nM.

Same assay, conditions: 0.2 Hz; HEK 293, 5 mM barium as charge carrier; read-out: Block of α1B N-type Channels IC50, 0.2 Hz
For O=C(CC(c1ccccc1)c1ccccc1)N1CCN(C(c2ccccc2)c2ccc3c(c2)OCO3)CC1 (stereo not drawn) [Compound P7], the IC50 was 137 nM.
In the case of O=C(CC(c1ccccc1)c1ccccc1)N1CCN([C@@H](c2ccccc2)c2ccc(Cl)cc2)CC1 [Compound P47], the IC50 is reported as 138 nM.
Work on O=C(CC(c1ccccc1)c1ccccc1)N1CCN(C(c2ccccc2)c2ccc(C(F)(F)F)cc2)CC1 (stereo not drawn) [Compound P1] yielded an IC50 of 74 nM.
O=C(CC(c1ccccc1)c1ccccc1)N1CCN(C(c2ccccc2)c2ccc(Cl)cc2)CC1 (stereo not drawn) [Compound P6] was tested, and the IC50 was 120 nM.
O=C(CC(c1ccccc1)c1ccccc1)N1CCN(C(c2ccccc2)c2cccc(C(F)(F)F)c2)CC1 (stereo not drawn) [Compound P2] showed an IC50 of 105 nM.
With Cc1ccc(C(c2ccccc2)N2CCN(C(=O)CC(c3ccccc3)c3ccccc3)CC2)c(C)c1 (stereo not drawn) [Compound P18] the IC50 was 237 nM.

These compounds were tested against T2, N-type calcium channels (α1B+α2δ+β1b cDNA subunits) (Rattus norvegicus, UniProt Q02294) (assay: Selectivity patch clamp, N-type channels in HEK 293 (Example 7)). Conditions: Tested at 0.1 Hz, 5 mM Ba2+.
T2 construct: expressed in transfected cells
T2 sequence (Q02294 whole entry): as above
Format: cell-based
With O=C(CC(c1ccccc1)c1ccccc1)N1CCN(C(c2ccccc2)c2ccc(Cl)cc2Cl)CC1 (stereo not drawn) [Compound P29] the IC50 was 385 nM.
O=C(CC(c1ccccc1)c1ccccc1)N1CCN(C(c2ccccc2)c2ccc3c(c2)OCO3)CC1 (stereo not drawn) [Compound P7] was tested, and the IC50 was 101 nM.
O=C(CC(c1ccccc1)c1ccccc1)N1CCN([C@@H](c2ccccc2)c2ccc(Cl)cc2)CC1 [Compound P47] gave an IC50 of 197 nM.
For O=C(CC(c1ccccc1)c1ccccc1)N1CCN(C(c2ccccc2)c2ccc(C(F)(F)F)cc2)CC1 (stereo not drawn) [Compound P1], the IC50 was 190 nM.
O=C(CC(c1ccccc1)c1ccccc1)N1CCN(C(c2ccccc2)c2ccc(Cl)cc2)CC1 (stereo not drawn) [Compound P6] gave an IC50 of 160 nM.
For O=C(CC(c1ccccc1)c1ccccc1)N1CCN(C(c2ccccc2)c2cccc(C(F)(F)F)c2)CC1 (stereo not drawn) [Compound P2], the IC50 was 113 nM.
Cc1ccc(C(c2ccccc2)N2CCN(C(=O)CC(c3ccccc3)c3ccccc3)CC2)c(C)c1 (stereo not drawn) [Compound P18] showed an IC50 of 217 nM.

Each compound was assayed on P/Q-type channels (α1A+α2δ+β1b cDNA subunits) (assay: Selectivity patch clamp, P/Q-type channels in HEK 293 (Example 7)). Conditions: Tested at 0.1 Hz, 5 mM Ba2+.
Format: cell-based
In the case of O=C(CC(c1ccccc1)c1ccccc1)N1CCN(C(c2ccccc2)c2ccc(Cl)cc2Cl)CC1 (stereo not drawn) [Compound P29], the IC50 is reported as 26000 nM.
Work on O=C(CC(c1ccccc1)c1ccccc1)N1CCN(C(c2ccccc2)c2ccc3c(c2)OCO3)CC1 (stereo not drawn) [Compound P7] yielded an IC50 of 6500 nM.
Work on O=C(CC(c1ccccc1)c1ccccc1)N1CCN([C@@H](c2ccccc2)c2ccc(Cl)cc2)CC1 [Compound P47] yielded an IC50 of 1860 nM.
Work on O=C(CC(c1ccccc1)c1ccccc1)N1CCN(C(c2ccccc2)c2ccc(C(F)(F)F)cc2)CC1 (stereo not drawn) [Compound P1] yielded an IC50 of 970 nM.
Work on O=C(CC(c1ccccc1)c1ccccc1)N1CCN(C(c2ccccc2)c2ccc(Cl)cc2)CC1 (stereo not drawn) [Compound P6] yielded an IC50 of 4500 nM.
Work on O=C(CC(c1ccccc1)c1ccccc1)N1CCN(C(c2ccccc2)c2cccc(C(F)(F)F)c2)CC1 (stereo not drawn) [Compound P2] yielded an IC50 of 1630 nM.
Work on Cc1ccc(C(c2ccccc2)N2CCN(C(=O)CC(c3ccccc3)c3ccccc3)CC2)c(C)c1 (stereo not drawn) [Compound P18] yielded an IC50 of 3590 nM.

These compounds were tested on L-type channels (α1C+α2δ+β1b cDNA subunits) (assay: Selectivity patch clamp, L-type channels in HEK 293 (Example 7)). Conditions: Tested at 0.1 Hz, 5 mM Ba2+.
Format: cell-based
Work on O=C(CC(c1ccccc1)c1ccccc1)N1CCN(C(c2ccccc2)c2ccc(Cl)cc2Cl)CC1 (stereo not drawn) [Compound P29] yielded an IC50 of 126000 nM.
O=C(CC(c1ccccc1)c1ccccc1)N1CCN(C(c2ccccc2)c2ccc3c(c2)OCO3)CC1 (stereo not drawn) [Compound P7] was tested, and the IC50 was 15800 nM.
O=C(CC(c1ccccc1)c1ccccc1)N1CCN([C@@H](c2ccccc2)c2ccc(Cl)cc2)CC1 [Compound P47] showed an IC50 of 4370 nM.
O=C(CC(c1ccccc1)c1ccccc1)N1CCN(C(c2ccccc2)c2ccc(C(F)(F)F)cc2)CC1 (stereo not drawn) [Compound P1] gave an IC50 of 19600 nM.
O=C(CC(c1ccccc1)c1ccccc1)N1CCN(C(c2ccccc2)c2ccc(Cl)cc2)CC1 (stereo not drawn) [Compound P6] was tested, and the IC50 was 133000 nM.
O=C(CC(c1ccccc1)c1ccccc1)N1CCN(C(c2ccccc2)c2cccc(C(F)(F)F)c2)CC1 (stereo not drawn) [Compound P2] gave an IC50 of 6600 nM.
Cc1ccc(C(c2ccccc2)N2CCN(C(=O)CC(c3ccccc3)c3ccccc3)CC2)c(C)c1 (stereo not drawn) [Compound P18] gave an IC50 of 13400 nM.

Each compound was assayed against T3, human α1G subunits (T-type channels) (Homo sapiens, UniProt O43497) (assay: Block of α1G T-type channels, patch clamp in HEK cell lines (Example 8)). Conditions: 80 mV (inactivation protocol); read-out: Block of α1G T-type Channels IC50, 80 mV.
T3 construct: expressed in transfected cells
T3 sequence (O43497 whole entry): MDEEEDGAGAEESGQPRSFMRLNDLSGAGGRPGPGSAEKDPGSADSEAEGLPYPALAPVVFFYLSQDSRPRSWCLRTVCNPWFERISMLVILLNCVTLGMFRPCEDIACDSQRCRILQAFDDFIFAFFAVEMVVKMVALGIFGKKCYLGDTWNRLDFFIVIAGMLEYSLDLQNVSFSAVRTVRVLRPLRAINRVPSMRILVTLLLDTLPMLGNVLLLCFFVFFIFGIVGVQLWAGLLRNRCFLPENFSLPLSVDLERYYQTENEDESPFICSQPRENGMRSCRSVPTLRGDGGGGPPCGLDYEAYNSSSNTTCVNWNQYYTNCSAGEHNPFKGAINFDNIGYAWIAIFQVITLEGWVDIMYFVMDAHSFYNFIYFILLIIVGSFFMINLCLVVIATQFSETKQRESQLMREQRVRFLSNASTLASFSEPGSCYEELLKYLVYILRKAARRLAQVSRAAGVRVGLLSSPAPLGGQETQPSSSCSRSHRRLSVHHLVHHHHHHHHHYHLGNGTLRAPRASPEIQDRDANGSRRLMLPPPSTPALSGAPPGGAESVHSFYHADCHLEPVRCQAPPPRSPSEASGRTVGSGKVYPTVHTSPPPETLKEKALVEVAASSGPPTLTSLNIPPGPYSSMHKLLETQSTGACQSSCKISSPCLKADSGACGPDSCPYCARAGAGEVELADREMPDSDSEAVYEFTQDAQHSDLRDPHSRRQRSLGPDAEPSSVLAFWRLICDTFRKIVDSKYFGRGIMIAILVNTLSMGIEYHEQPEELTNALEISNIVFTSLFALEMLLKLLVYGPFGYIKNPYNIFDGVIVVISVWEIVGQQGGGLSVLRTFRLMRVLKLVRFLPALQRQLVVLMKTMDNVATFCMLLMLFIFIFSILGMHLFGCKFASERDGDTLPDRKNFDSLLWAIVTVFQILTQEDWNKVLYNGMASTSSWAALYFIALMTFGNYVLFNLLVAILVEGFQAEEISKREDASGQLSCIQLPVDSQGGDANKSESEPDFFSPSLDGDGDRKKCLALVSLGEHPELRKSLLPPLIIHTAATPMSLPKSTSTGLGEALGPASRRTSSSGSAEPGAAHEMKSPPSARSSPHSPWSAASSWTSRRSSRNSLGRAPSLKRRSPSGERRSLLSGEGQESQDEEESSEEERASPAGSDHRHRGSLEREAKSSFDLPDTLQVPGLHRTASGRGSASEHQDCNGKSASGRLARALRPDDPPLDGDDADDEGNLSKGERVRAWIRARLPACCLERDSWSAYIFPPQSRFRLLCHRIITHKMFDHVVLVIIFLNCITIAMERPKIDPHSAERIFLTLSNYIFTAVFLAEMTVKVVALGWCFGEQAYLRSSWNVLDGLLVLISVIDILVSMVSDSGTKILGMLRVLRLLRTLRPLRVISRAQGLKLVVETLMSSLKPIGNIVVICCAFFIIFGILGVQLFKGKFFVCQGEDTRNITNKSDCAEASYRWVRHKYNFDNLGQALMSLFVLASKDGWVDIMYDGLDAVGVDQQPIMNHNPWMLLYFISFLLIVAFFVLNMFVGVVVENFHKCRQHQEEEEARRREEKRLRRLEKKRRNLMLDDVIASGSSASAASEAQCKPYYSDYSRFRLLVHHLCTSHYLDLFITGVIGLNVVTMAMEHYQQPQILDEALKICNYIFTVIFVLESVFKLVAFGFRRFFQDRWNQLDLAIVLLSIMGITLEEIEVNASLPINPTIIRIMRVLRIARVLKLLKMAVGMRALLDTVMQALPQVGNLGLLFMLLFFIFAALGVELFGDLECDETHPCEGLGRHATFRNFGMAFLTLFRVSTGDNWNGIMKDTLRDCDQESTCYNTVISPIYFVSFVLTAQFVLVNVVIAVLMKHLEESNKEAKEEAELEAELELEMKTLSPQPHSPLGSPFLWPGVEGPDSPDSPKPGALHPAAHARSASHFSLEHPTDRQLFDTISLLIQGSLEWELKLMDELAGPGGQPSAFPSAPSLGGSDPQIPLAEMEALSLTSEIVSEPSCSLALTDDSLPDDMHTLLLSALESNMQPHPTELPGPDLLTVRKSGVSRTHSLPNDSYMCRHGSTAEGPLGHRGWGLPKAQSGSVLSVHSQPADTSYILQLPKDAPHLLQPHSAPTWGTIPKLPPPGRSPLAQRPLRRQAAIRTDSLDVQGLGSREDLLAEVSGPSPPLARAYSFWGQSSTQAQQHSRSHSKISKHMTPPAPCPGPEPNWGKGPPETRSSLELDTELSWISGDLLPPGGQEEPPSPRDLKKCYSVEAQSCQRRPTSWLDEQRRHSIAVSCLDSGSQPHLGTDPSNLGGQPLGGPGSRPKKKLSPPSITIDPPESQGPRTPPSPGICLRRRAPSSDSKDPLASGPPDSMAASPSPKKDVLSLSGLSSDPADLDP
Format: cell-based
Protocol: Standard patch-clamp techniques were employed to identify blockers of T-type currents. Briefly, previously described HEK cell lines stably expressing human α1G subunits were used for all the recordings (passage #: 4-20, 37° C., 5% CO2). To obtain T-type currents, plastic dishes containing semi-confluent cells were positioned on the stage of a ZEISS AXIOVERT S100 microscope after replacing the culture medium with external solution (see below). Whole-cell patches were obtained using pipettes (borosilicate glass with filament, O.D.: 1.5 mm, I.D.: 0.86 mm, 10 cm length), fabricated on a SUTTER P-97 puller with resistance values of ˜5 MΩ (see below for internal medium).
In the non-inactivating protocol, the holding potential is set at −110 mV and with a pre-pulse at −100 mV for 1 second prior to the test pulse at −40 mV for 50 ms; in the inactivation protocol, the pre-pulse is at approximately −85 mV for 1 second, which inactivates about 15% of the T-type channels, as shown below. [formula]
Test compounds were dissolved in external solution, 0.1-0.01% DMSO. After ˜10 min rest, they were applied by gravity close to the cell using a WPI microfil tubing. The “non-inactivated” pre-pulse was used to examine the resting block of a compound. The “inactivated” protocol was employed to study voltage-dependent block, but the initial data shown below were mainly obtained using the non-inactivated protocol only. IC50 values are shown for various compounds of the invention in Table 5.
O=C(CC(c1ccccc1)c1ccccc1)N1CCN(C(c2ccccc2)c2ccc(Cl)cc2Cl)CC1 (stereo not drawn) [Compound P29] gave an IC50 of 4 nM.
With O=C(CC(c1ccccc1)c1ccccc1)N1CCN([C@@H](c2ccccc2)c2ccc(Cl)cc2)CC1 [Compound P47] the IC50 was 464 nM.

Same assay, conditions: 100 mV (non-inactivating protocol); read-out: Block of α1G T-type Channels IC50, 100 mV
O=C(CC(c1ccccc1)c1ccccc1)N1CCN(C(c2ccccc2)c2ccc(Cl)cc2Cl)CC1 (stereo not drawn) [Compound P29] gave an IC50 of 33 nM.
For O=C(CC(c1ccccc1)c1ccccc1)N1CCN([C@@H](c2ccccc2)c2ccc(Cl)cc2)CC1 [Compound P47], the IC50 was 1440 nM.
Work on O=C(CC(c1ccccc1)c1ccccc1)N1CCN(C(c2ccccc2)c2ccc(Cl)cc2)CC1 (stereo not drawn) [Compound P6] yielded an IC50 of 81 nM.
In the case of Cc1ccc(C(c2ccccc2)N2CCN(C(=O)CC(c3ccccc3)c3ccccc3)CC2)c(C)c1 (stereo not drawn) [Compound P18], the IC50 is reported as 35 nM.

What follows are compounds tested on rat formalin model (assay: Formalin-induced pain model). Conditions: 30 mg/kg IP, 10 minutes prior to formalin, saline control=100%.
Format: in vivo
Protocol: The effects of intrathecally delivered compounds of the invention on the rat formalin model were measured. The compounds were reconstituted to stock solutions of approximately 10 mg/ml in propylene glycol. Eight Holtsman male rats of 275-375 g size were randomly selected per test compound.
The following study groups were used, with test compounds, vehicle control (propylene glycol) and saline delivered intraperitoneally (IP):
Prior to initiation of drug delivery baseline behavioral and testing data were taken.
On the morning of testing, a small metal band (0.5 g) was loosely placed around the right hind paw. The rat was placed in a cylindrical Plexiglas chamber for adaptation a minimum of 30 minutes. Test compound or vehicle control was administered 10 minutes prior to formalin injection (50 μl of 5% formalin) into the dorsal surface of the right hindpaw of the rat. The animal was then placed into the chamber of the automated formalin apparatus where movement of the formalin injected paw was monitored and the number of paw flinches tallied by minute over the next 60 minutes. (See Malmberg, A. M., and Yaksh, T. L., Anesthesiology (1993) 79:270-281.)
Results are presented as Maximum Possible Effect±SEM, where saline control=100%.
With O=C(CC(c1ccccc1)c1ccccc1)N1CCN(C(c2ccccc2)c2ccc(Cl)cc2Cl)CC1 (stereo not drawn) [Compound P29] the “Maximum Possible Effect ± SEM, Phase I” value was 78 ± 17%, the “Maximum Possible Effect ± SEM, Phase II” value was 70 ± 10% and the “Maximum Possible Effect ± SEM, Phase IIA” value was 61 ± 9%.
With O=C(CC(c1ccccc1)c1ccccc1)N1CCN(C(c2ccccc2)c2ccc3c(c2)OCO3)CC1 (stereo not drawn) [Compound P7] the “Maximum Possible Effect ± SEM, Phase I” value was 56 ± 12%, the “Maximum Possible Effect ± SEM, Phase II” value was 67 ± 6% and the “Maximum Possible Effect ± SEM, Phase IIA” value was 61 ± 11%.
With O=C(CC(c1ccccc1)c1ccccc1)N1CCN([C@@H](c2ccccc2)c2ccc(Cl)cc2)CC1 [Compound P47] the “Maximum Possible Effect ± SEM, Phase I” value was 60 ± 7%, the “Maximum Possible Effect ± SEM, Phase II” value was 55 ± 8% and the “Maximum Possible Effect ± SEM, Phase IIA” value was 54 ± 9%.
For O=C(CC(c1ccccc1)c1ccccc1)N1CCN(C(c2ccccc2)c2cccc(C(F)(F)F)c2)CC1 (stereo not drawn) [Compound P2], the “Maximum Possible Effect ± SEM, Phase I” value was 57 ± 14%, the “Maximum Possible Effect ± SEM, Phase II” value was 67 ± 10% and the “Maximum Possible Effect ± SEM, Phase IIA” value was 61 ± 11%.
In the case of Cc1ccc(C(c2ccccc2)N2CCN(C(=O)CC(c3ccccc3)c3ccccc3)CC2)c(C)c1 (stereo not drawn) [Compound P18], the “Maximum Possible Effect ± SEM, Phase I” value is reported as 73 ± 17%, the “Maximum Possible Effect ± SEM, Phase II” value is reported as 84 ± 12% and the “Maximum Possible Effect ± SEM, Phase IIA” value is reported as 78 ± 13%.

Source: patent US20040259866A1, “Calcium channel blockers comprising two benzhydril moieties” (priority 1998, published 2004)
